# Test results reported in US20190315823A1, “SMALL CATIONIC ANTI-BIOFILM AND IDR PEPTIDES” (priority 2013, published 2019).
# Ends that are not written are not given here.
# Key:
# [1] = system: methicillin resistant Staphylococcus aureus (MRSA) biofilm; settings: approximate peptide concentration […] (around 3 μg/ml); compared to untreated samples
# Method: Methods of assessment of anti-biofilm activity—Biofilm formation was initially analyzed using a static abiotic solid surface assay as described elsewhere (de la Fuente-Nunez et al., 2012). Dilutions (1/100) of overnight cultures were incubated in BM2 biofilm-adjusted medium [62 mM potassium phosphate buffer (pH 7), 7 mM (NH4)2SO4, 2 mM MgSO4, 10 μM FeSO4, 0.4% (wt/vol) glucose, 0.5% (wt/vol) Casamino Acids], or a nutrient medium such as Luria Broth, in polypropylene microtiter plates (Falcon, United States) in the absence (control) or presence of peptide. Peptide was added at time zero (prior to adding the diluted, overnight cultures) in varying concentrations, and the decrease in biofilm formation was recorded at 22-46 h for most bacteria. Planktonic cells were removed, biofilm cells adhering to the side of the tubes were stained with crystal violet, and absorbance at 595 nm was measured using a microtiter plate reader (Bio-Tek Instruments Inc., United States). Some peptides were screened against two Gram negative organisms, P. aeruginosa and K. pneumoniae using a Bioflux apparatus (AutoMate Scientific, Berkeley, Calif.; http://www.autom8.com/bioflux_biofilm.html), which allows for the high-throughput, real-time analysis of biofilms.
# [2] = system: human peripheral blood mononuclear cells (MCP-1); assay: SPOT-synthesized derivative screen: production of chemokine MCP-1; assay type: cell-based; settings: Table 12, No LPS, human PBMC, peptide at ~18-24 μM; for MCP1: background subtracted 139 (HH2 derivatives), 170 (1018 derivatives), 242 (1002 and hybrid peptides) pg/ml
# Method: Venous blood (20 ml) from healthy volunteers was collected in Vacutainer® collection tubes containing sodium heparin as an anticoagulant (Becton Dickinson, Mississauga, ON) in accordance with UBC ethical approval and guidelines. Blood was diluted 1:1 with complete RPMI 1640 medium and separated by centrifugation over a Ficoll-Paque® Plus (Amersham Biosciences, Piscataway, N.J., USA) density gradient. White blood cells were isolated from the buffy coat, washed twice in RPMI 1640 complete medium, and the number of peripheral blood mononuclear cells (PBMC) was determined by Trypan blue exclusion. PBMC (5×10^5) were seeded into 12-well tissue culture dishes (Falcon; Becton Dickinson) at 0.75 to 1×10^6 cells/ml at 37° C. in 5% CO2. The above conditions were chosen to mimic conditions for circulating blood monocytes entering tissues at the site of infection via extravasation.
# Following incubation of the cells under various treatment regimens, the tissue culture supernatants were centrifuged at 1000×g for 5 min, then at 10,000×g for 2 min to obtain cell-free samples. Supernatants were aliquoted and then stored at −20° C. prior to assay for various chemokines by capture ELISA (eBioscience and BioSource International Inc., CA, USA respectively)
# [3] = system: LPS-stimulated human peripheral blood mononuclear cells (IL1-β); assay type: cell-based; settings: Table 12, cells stimulated with 10 ng/ml LPS; for IL1β Production: LPS alone 1313 (HH2 derivatives), 1927 (1018 derivatives), 2455 (1002 and hybrid peptides) pg/ml
# Method: LPS from P. aeruginosa strain H103 was highly purified free of proteins and lipids using the Darveau-Hancock method. Briefly, P. aeruginosa was grown overnight in LB broth at 37° C. Cells were collected and washed and the isolated LPS pellets were extracted with a 2:1 chloroform:methanol solution to remove contaminating lipids. Purified LPS samples were quantitated using an assay for the specific sugar 2-keto-3-deoxyoctosonic acid (KDO assay) and then resuspended in endotoxin-free water (Sigma-Aldrich).
Substance,% Biofilm inhibition [1] [%],Fold increase in MCP1 cf. untreated cells [2],MCP1 [2] [pg/mL],Fold change in IL1β relative to no peptide LPS stimulated cells [3],IL1β Production [3] [pg/mL]
HH2-R7: single substituted HH2 peptide (VQLRIRRAVIRA-NH2),3,1.6,98,1.49,1959
1018-K8: single substituted 1018 peptide (VRLIVAVKIWRR-NH2) [Peptide 1018-K8],65,8.3,1237,0.18,242
HH2-Q6: single substituted HH2 peptide (VQLRIQVAVIRA-NH2),35,191,32306,0.83,1088
1002-V2: single substituted 1002 peptide (VVRWLIVWRIRK-NH2) [Peptide 1002-V2],72,22.5,5209.2,0.05,127
1018-G10: single substituted 1018 peptide (VRLIVAVRIGRR-NH2) [Peptide 1018-G10],55,0.8,-41,0.46,605
HH2-K8: single substituted HH2 peptide (VQLRIRVKVIRA-NH2),73,9.8,1501,0.65,851
1002-A5: single substituted 1002 peptide (VQRWAIVWRIRK-NH2) [Peptide 1002-A5],70,0.9,-36.2,0.07,182
1002-G10: single substituted 1002 peptide (VQRWLIVWRGRK-NH2) [Peptide 1002-G10],35,1.4,91.3,0.09,222
1002-Q4: single substituted 1002 peptide (VQRQLIVWRIRK-NH2) [Peptide 1002-Q4],36,0.9,-28.8,0.47,1165
HH2-L11: single substituted HH2 peptide (VQLRIRVAVILA-NH2),47,40,6545,1.09,1425
HH2-A1: single substituted HH2 peptide (AQLRIRVAVIRA-NH2),56,14,2254,1.21,1587
1018-Q10: single substituted 1018 peptide (VRLIVAVRIQRR-NH2) [Peptide 1018-Q10],38,0.7,-54,0.12,154
1002-Q5: single substituted 1002 peptide (VQRWQIVWRIRK-NH2) [Peptide 1002-Q5],48,0.9,-36.2,0.07,180
HH2-I2: single substituted HH2 peptide (VILRIRVAVIRA-NH2),54,11,1748,0.81,1060
1002-G5: single substituted 1002 peptide (VQRWGIVWRIRK-NH2) [Peptide 1002-G5],59,0.9,-36.2,0.25,621
1018-Q4: single substituted 1018 peptide (VRLQVAVRIWRR-NH2) [Peptide 1018-Q4],39,0.4,-104,0.35,458
1018-V12: single substituted 1018 peptide (VRLIVAVRIWRV-NH2) [Peptide 1018-V12],56,1.3,56,0.51,673
HH2-R8: single substituted HH2 peptide (VQLRIRVRVIRA-NH2),71,121,1890,0.79,1042
HH2-K4: single substituted HH2 peptide (VQLKIRVAVIRA-NH2),65,10,1553,0.58,759
1018-L8: single substituted 1018 peptide (VRLIVAVLIWRR-NH2) [Peptide 1018-L8],40,0.5,-83,0.42,553
